assay: Human HepG2 cell viability assay in 384 well format; type: toxicity, cell-based; parameters: dose 125 nL, time 70.5 hour; concentration not given beside the values; conditions: HepG2 cells, read-out: Inhibition

Point of comparison: `O=c1c2cccc(C(F)(F)F)c2ncn1CCN1CCNCC1`, cytotoxicity at 70.5 h -1.89%. Against it:
- CC(C)N1CCC(CC(=O)N(C)C(C)c2cncs2)CC1 (stereo not given) — lower, -15.3%
- Cc1cc(CNC2(CO)CCOCC2)ccc1Br — higher, -0.894%
- COC1CN(CCO)S(=O)(=O)c2ccccc21 (stereo not given) — lower, -7.83%
- Cc1nc(CN2C(=O)CCC23CCN(Cc2ccco2)CC3)cs1 — higher, -1.31%
- Cn1ncnc1-c1ccnc(NCCCc2ccncc2)n1 — lower, -17.5%
- Cc1nc2c(c(NCCNC(=O)C(C)C)n1)Cc1ccccc1OC2 — lower, -6.01%
- Cc1noc(C)c1C(=O)NCCN1CCN(S(C)(=O)=O)CC1 — higher, -1.17%
- COC(=O)c1cnc(/C=C/c2ccc(C(=O)O)cc2)s1 — higher, 0.0314%
- Cc1ccc(N2CCc3ncc(CNc4ccccn4)n3CC2)nn1 — higher, -1.74%
- CC(C)CC1SCC(=O)Nc2c1cnn2-c1ccc(F)cc1 (stereo not given) — lower, -6.67%
- CCS(=O)(=O)N1CCC2(CN(Cc3ccc(C)o3)C2)C1 — lower, -13.4%
- Cn1cc(CNCCc2cccnc2)c(-c2cccnc2)n1 — higher, 22.8%
- Cc1ccc(N2CCC(NCc3cnc(C4CCC4)s3)CC2)nc1 — higher, 6.63%
- CCC(C)(C)C(=O)NCCCOC1CCOC1 (stereo not given) — higher, 2.9%
- Cc1ccc(OC2(C(=O)O)CCN(C(=O)c3cc(C)oc3C)CC2)cn1 — higher, 4.69%
- CCCN1CC2(CCN(C)CC2)CC1C(=O)NCCn1cc(C)cn1 (stereo not given) — lower, -4.52%
- CC(C)N1[C@@H](C(=O)NCCN(C)C)C[C@H]2CN(c3ncccn3)C[C@H]21 — lower, -2.96%
- CCCc1n[nH]c(=O)n1Cc1ccccc1F — higher, 2.4%
- CCc1nnsc1C(=O)N1CCCC(COc2ccc(F)cc2)C1 (stereo not given) — lower, -4.43%
- Cc1noc(C)c1C(=O)N1CCC2(CC(N(C)c3ccncn3)C2)C1 (stereo not given) — lower, -6.65%
- Cc1cc(N(C)Cc2ncc(-c3ccccc3C(=O)O)s2)ncn1 — higher, 16.7%
- O=C(c1cc(Cn2ccc3ccccc32)[nH]n1)N1CCCCC1CO (stereo not given) — higher, 10.4%
- O=C(COCC1CCCO1)N1CCCN(Cc2ccccc2F)CC1 (stereo not given) — lower, -5.89%
- CCc1ncc(C(=O)N2CCn3c(CC)nnc3C2)s1 — lower, -13.9%
- O=C(CCc1cc(O)no1)N1CCCC(COc2ccccc2F)C1 (stereo not given) — lower, -20.7%
- Cc1nc(N2CCCC2)ncc1-c1cc(O)nc(N2CCN(C)CC2)n1 — lower, -2.96%
- COc1cc(C(=O)N2CCCC2c2noc(C(C)C)n2)on1 (stereo not given) — lower, -2.66%
- CC(O)CNC(=O)CCc1nc2ncccc2[nH]1 (stereo not given) — lower, -29.9%
- c1csc(SCC2CN=C(N3CCOCC3)S2)c1 (stereo not given) — lower, -3.45%
- CCC(CC)(CC(=O)OC)NC(=O)Nc1nnc(-c2ccccn2)s1 — higher, 9.93%
- Cn1cc(N2CCCC(Nc3ccc4c(c3)NC(=O)CC4)C2=O)cn1 (stereo not given) — higher, -1.14%
- COc1ccc(C)cc1CN(C)Cc1nc2c(cnn2C)c(=O)[nH]1 — lower, -7.21%
- Cn1c(=O)c2cc(C(=O)NCCOc3ccccc3)ccc2n(C)c1=O — higher, 24.3%
- CCOc1ncccc1CNC(=O)N1CCCC1c1ccsc1 (stereo not given) — higher, -0.934%
- O=C(Nc1ccccc1-c1cccs1)N1CCN(CC(F)F)CC1 — lower, -11.6%
- COCCN(CCC#N)S(=O)(=O)c1ccc(F)cc1F — higher, 0.44%
- O=C(COc1ccccc1N1CCCC1)N1CCN[C@H]2CS(=O)(=O)C[C@H]21 — lower, -7.17%
- Cc1noc(C)c1CN1CCC(c2ccnn2CCO)CC1 — lower, -5.98%
- CCC1COCCN1C(=O)CNC(=O)c1ccc2c(c1)CCC2 (stereo not given) — higher, 37.1%
- Cc1nnc(CN2CCCC2c2ccc(C(C)(C)C)cc2)o1 (stereo not given) — lower, -3.63%
- Cn1ncnc1CNC1CCc2cc(Cl)ccc21 (stereo not given) — lower, -19.7%
- CN(C)C(=O)CC1CC2(CCN(CC3CC3)CC2)Oc2ccccc21 (stereo not given) — lower, -3.69%
- C=C(C)COc1ccccc1NC(=O)N1CCOCC(CO)C1 (stereo not given) — higher, 23.5%
- O=C(Cc1cccc(O)c1)N1CCCC(O)(CN2CCCC2)CC1 (stereo not given) — lower, -6.1%
- Cc1nc(CN2CCC(CNC(=O)C3(C)CCCC3)CC2)oc1C — lower, -4.66%
- COc1c(CNCc2cccnc2OC2CCCC2)c(C)nn1C — higher, -1.47%
- CC(C)C(=O)NCC(=O)NCC1CCN(c2cnn(C)c(=O)c2)CC1 — higher, 23.1%
- COCC(=O)N1CC2=CC(C)(C)COc3ccc(OC)c(c32)C1 — higher, 21.5%
- Cc1cccc(C2CCCN(C(=O)c3ccncc3)C2)n1 (stereo not given) — lower, -7.3%
- CC(C)c1nnc(CNCC2CCCN2c2cccnn2)o1 (stereo not given) — lower, -6.87%
- Cc1ccc(S(=O)(=O)N2CC(C)Oc3ncccc32)c(F)c1 (stereo not given) — lower, -7.65%
- CCOCCn1nc(C)cc1C(=O)N1CC[C@](C)(O)C(C)(C)C1 — higher, 2.52%
- CCn1nc(C)c(CN(CCOC)C(=O)c2cnc(C)nc2O)c1C — lower, -6.8%
- O=C(Cc1cccc(F)c1)N1CCN2C[C@H](Oc3cncnc3)C[C@H]2C1 — lower, -2.68%
- CN(C)C(=O)N1CCN(c2ccc3ccc(C(=O)NC4CC4)cn23)CC1 — higher, 11.8%
- O=C(c1cnco1)N1C[C@@H]2CC[C@H](Oc3ccccc3F)[C@@H]2C1 — higher, 40.3%
- CC(CO)NS(=O)(=O)c1cccc(C(C)C)c1 (stereo not given) — lower, -9%
- CNC(=O)N1CCCCC1c1nnc2n1CCCC2 (stereo not given) — higher, -0.585%
- COc1ccc(C2=Nn3c(CCN)nnc3-c3ccccc3C2)cc1 — higher, 8.3%
- FC(F)(F)c1cc(-c2cccs2)nc(N2CCN3CCCC3C2)n1 (stereo not given) — lower, -13.6%
- COCc1cc(N2CCOC(c3ccc(Cl)cc3)C2)ncn1 (stereo not given) — lower, -10.8%
- c1cnnc(N2CCCC2CNCc2nnc(C3CC3)o2)c1 (stereo not given) — lower, -3.19%
- COC(=O)[C@H](C)NC(=O)Cc1c(C)nc2c(c1C)c(=O)[nH]n2C — lower, -2.82%
- Cc1ncsc1-c1nnc(C2CCN(Cc3ccccc3Cl)CC2)o1 — higher, -0.461%
- CC(C)(C)c1cc(=O)[nH]c(C2(N)CCCC2)n1 — higher, 14.1%
- CCN(CC)c1ccc(C(=O)NCC2(C(N)=O)CCOCC2)cn1 — lower, -4.92%
- CC(=O)c1c(F)cccc1NCC(O)C(C)(C)C (stereo not given) — lower, -11.2%
- CCS(=O)(=O)N1CCC2(C1)C(=O)N(C)CCN2Cc1ccncc1 (stereo not given) — lower, -7.36%
- CC1CN(C(=O)CN(Cc2ccco2)Cc2cccs2)CCO1 (stereo not given) — higher, 3%
- CN(C)Cc1ccccc1CN(C)c1ncnc2[nH]ccc12 — lower, -9.22%
- COc1ccc(Cl)cc1CCNC(=O)NCc1ncnn1C — lower, -13.1%
- Cc1cc(C)nc(C2CCN(C3CCOCC3)C2)n1 (stereo not given) — lower, -11.5%
- Cc1ccc(CN[C@@H]2COC[C@H]2Cc2cc(C)no2)cc1 — lower, -7.63%
- COc1cc2c(cc1CN1CCCCC1CN1CCOCC1)CCC2 (stereo not given) — higher, 1.06%
- COC(=O)[C@@H]1CN(S(=O)(=O)c2ccccc2)CCN1S(C)(=O)=O — lower, -7.6%
- CCCn1nc2c(cc1=O)CN(Cc1c(C)noc1C)CC2 — lower, -6.66%
- Cc1nc2c(c(C)c1CC(=O)Nc1ccccc1F)c(=O)[nH]n2C — higher, 4.76%
- COCCN1CCO[C@H]2CN(C(=O)c3cccs3)C[C@H]21 — lower, -7.52%
- Cc1cc(CN2CCc3cncnc3C2)on1 — higher, 9.54%
- COc1cccc(C(=O)Nc2n[nH]c(C3CCCO3)n2)c1 (stereo not given) — higher, 22.1%
- Cc1cc(C(=O)N[C@H]2CC[C@@]3(CCC(=O)N3C)CC2)no1 — lower, -9.34%
- CNC(=O)[C@@H]1C[C@H]2CN(Cc3nccs3)C[C@H]2N1C — higher, 6.13%
- CN(C)CCN(Cc1ccco1)C(=O)Cc1cn2ccsc2n1 — lower, -3.81%
- CCCn1nc(C(=O)N(C)Cc2cnn(C)c2)ccc1=O — higher, 0.0623%
- Cn1c(CN2CCOC(CCc3ccncn3)C2)nc2ccccc21 (stereo not given) — lower, -3.77%
- CC(C)C(CNC(=O)Nc1cn[nH]c1)N1CCOCC1 (stereo not given) — lower, -5.6%
- CN(C)CCNC(=O)c1ccc2ccc(N(C)CC3CC3)n2c1 — higher, -0.944%
- O=C(NCc1cn2c(n1)CN(CC1CCOCC1)CC2)C1CCC1 — lower, -2.34%
- CN1CCC(N(C)C(=O)CSc2ccc(F)c(F)c2)C1=O (stereo not given) — lower, -2.06%
- CC1CN(C)CCN1C(=O)c1ccn(-c2cccc(Cl)c2)n1 (stereo not given) — lower, -13.2%
- CCc1ncc(C(=O)N2C[C@@H](C)O[C@@H](C)C2)cn1 — lower, -5%
- COCCOc1ccc(NC(=O)C2CC(=O)N(CC3CC3)C2)cn1 (stereo not given) — higher, 19.3%
- Cn1cc(-c2c(C#N)c(N)nc3c2CCc2[nH]ccc2-3)cn1 — higher, 17.1%
- CCOc1ccc(C(F)(F)F)cc1NC(=O)N1CCC(C(N)=O)CC1 — lower, -4.57%
- COc1cccc2c1ccn2CCNC(C)=O — lower, -16.2%
- CCc1nc(CC2CN(c3ncnc4sc(C)c(C)c34)CCO2)no1 (stereo not given) — lower, -19.7%
- CNc1cccc(C2CCCN(C(=O)c3cccnc3)C2)n1 (stereo not given) — higher, 20.4%
- O=C(c1ccncc1)N1CC2(CCNCC2)c2cc(Cl)ccc21 — lower, -6.69%
- Cc1n[nH]c(C2CN(C(=O)c3ccc(=O)n(C)c3)CCO2)n1 (stereo not given) — higher, 25.4%
- O=C(c1cccnc1)N1CCn2nnc(COc3cccnc3)c2C1 — lower, -3.89%
- CCNC(=O)CCc1c(C)nc2cc(O)nn2c1C — lower, -5%
- Cc1noc(NC(=O)c2ccc(OC(F)(F)F)cc2)n1 — higher, 55.7%
- Cc1nn(C)c(C)c1CCC(=O)NCc1csc(N2CCCC2)n1 — higher, 2.01%
- CN(C)c1nccc(NCc2cc(-c3cccs3)n[nH]2)n1 — higher, 4.36%
- O=c1[nH]c(=O)n(CC(O)c2ccccc2Cl)cc1Cl (stereo not given) — lower, -5.98%
- CN1[C@@H](CCC(=O)NCc2ccc(F)cc2)CNC(=O)[C@H]2NCC[C@H]21 — lower, -2.11%
- Cc1nc(CN2CCCn3cnc(COCC4CC4)c3C2)cs1 — higher, -1.49%
- CCCN(CC1COc2ccccc2O1)C(=O)c1ncoc1CC (stereo not given) — lower, -7.46%
- O=S(=O)(Nc1ncccc1F)c1cc(Cl)cc2c1OCC2 — higher, 6.97%
- O=C(Cn1cnc(NC(=O)CC2CCCC2)n1)NCc1ccccc1 — higher, 1.33%
- Cc1cnc(N2CCC3(C2)CN(S(=O)(=O)C2CC2)C3)nc1 — lower, -8.82%
- COCCN(Cc1cccc(OCCO)c1)Cc1ccccc1F — lower, -2.88%
- Cc1ccoc1C(=O)N1CCCC(c2cc(C(F)(F)F)[nH]n2)C1 (stereo not given) — lower, -8.09%
- CN(CCO)Cc1cc(=O)n2cc(Br)ccc2n1 — higher, -1.02%

Source: ChEMBL document CHEMBL3507680, “University of Dundee, Gates Library screen for HepG2 cell viability”
